The nature of this data set: solubility of compound I in aqueous solutions. Format: physicochemical.

For `CN1CCc2nc(C(=O)N[C@@H]3C[C@@H](C(=O)N(C)C)CC[C@@H]3NC(=O)C(=O)Nc3ccc(Cl)cn3)sc2C1` [compound I, N^1-(5-chloropyridin-2-yl)-N^2-((1S,2R,4S)-4-[(dimethylamino)carbonyl]-2-{[(5-methyl-4,5,6,7-tetrahydrothiazolo[5,4-c]pyridin-2-yl)carbonyl]amino}cyclohexyl)ethanediamide], the “solubility in a neutral aqueous solution” value (neutral aqueous solution (e.g., a neutral buffer)) is “reduced solubility”. In addition, the “solubility in a strongly acidic aqueous solution” value (strongly acidic aqueous solution) was “favorable solubility”.

These data come from patent US8449896B2, “Pharmaceutical composition having improved solubility” (Daiichi Sankyo Company, Limited, priority 2009, dated 2013).
